According to PubChem BioAssay (NCI):
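GI50 is the concentration that inhibits growth by half. Definition used: TGI = concentration required for complete inhibition of growth.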

How the values were obtained:
Assay in all cases: NCI tumour cell line growth inhibition, 384-well format
EKVX NSCLC = system: EKVX NSCLC
SF-268 CNS = system: SF-268 CNS
UACC-257 melanoma = system: UACC-257 melanoma
HCT-15 colon = system: HCT-15 colon
RXF 393 renal = system: RXF 393 renal
LOX IMVI melanoma = system: LOX IMVI melanoma
UO-31 renal = system: UO-31 renal
OVCAR-5 ovarian = system: OVCAR-5 ovarian
HL-60(TB) leukemia = system: HL-60(TB) leukemia
786-0 renal = system: 786-0 renal
MALME-3M melanoma = system: MALME-3M melanoma
SNB-19 CNS = system: SNB-19 CNS
SW-620 colon = system: SW-620 colon
OVCAR-3 ovarian = system: OVCAR-3 ovarian
SF-539 CNS = system: SF-539 CNS
MDA-MB-231 breast = system: MDA-MB-231 breast
T-47D breast = system: T-47D breast
OVCAR-4 ovarian = system: OVCAR-4 ovarian
SK-MEL-2 melanoma = system: SK-MEL-2 melanoma
SNB-75 CNS = system: SNB-75 CNS
MCF7 breast = system: MCF7 breast
SK-OV-3 ovarian = system: SK-OV-3 ovarian
ACHN renal = system: ACHN renal
SN12C renal = system: SN12C renal
MDA-MB-468 breast = system: MDA-MB-468 breast
NCI/ADR-RES ovarian = system: NCI/ADR-RES ovarian
PC-3 prostate = system: PC-3 prostate
NCI-H522 lung = system: NCI-H522 lung
A549 NSCLC = system: A549 NSCLC
RPMI-8226 leukemia = system: RPMI-8226 leukemia
NCI-H322M lung = system: NCI-H322M lung
CAKI-1 renal = system: CAKI-1 renal
CCRF-CEM leukemia = system: CCRF-CEM leukemia
KM12 colon = system: KM12 colon
HOP-62 NSCLC = system: HOP-62 NSCLC
SK-MEL-28 melanoma = system: SK-MEL-28 melanoma
BT-549 breast = system: BT-549 breast
HS 578T breast = system: HS 578T breast
M14 melanoma = system: M14 melanoma
MOLT-4 leukemia = system: MOLT-4 leukemia
TK-10 renal = system: TK-10 renal
NCI-H226 lung = system: NCI-H226 lung
U251 glioblastoma = system: U251 glioblastoma
HCT-116 colon = system: HCT-116 colon
IGROV1 ovarian = system: IGROV1 ovarian
NCI-H23 lung = system: NCI-H23 lung
A498 renal = system: A498 renal
HT29 colon = system: HT29 colon
HOP-92 NSCLC = system: HOP-92 NSCLC
UACC-62 melanoma = system: UACC-62 melanoma
MDA-MB-435 melanoma = system: MDA-MB-435 melanoma
OVCAR-8 ovarian = system: OVCAR-8 ovarian
DU-145 prostate = system: DU-145 prostate
K-562 leukemia = system: K-562 leukemia
SF-295 CNS = system: SF-295 CNS

Structure (SMILES): Cn1nnc2c(C(N)=O)ncn2c1=O
- GI50 (EKVX NSCLC): > 100 µM
- TGI (EKVX NSCLC): > 100 µM
- GI50 (SF-268 CNS): > 100 µM
- TGI (SF-268 CNS): > 100 µM
- GI50 (UACC-257 melanoma): > 100 µM
- TGI (UACC-257 melanoma): > 100 µM
- GI50 (HCT-15 colon): > 100 µM
- TGI (HCT-15 colon): > 100 µM
- GI50 (RXF 393 renal): > 100 µM
- TGI (RXF 393 renal): > 100 µM
- GI50 (LOX IMVI melanoma): > 100 µM
- TGI (LOX IMVI melanoma): > 100 µM
- GI50 (UO-31 renal): > 100 µM
- TGI (UO-31 renal): > 100 µM
- GI50 (OVCAR-5 ovarian): > 100 µM
- TGI (OVCAR-5 ovarian): > 100 µM
- GI50 (HL-60(TB) leukemia): > 100 µM
- TGI (HL-60(TB) leukemia): > 100 µM
- GI50 ([…]-0 renal): > 100 µM
- TGI (786-0 renal): > 100 µM
- GI50 (MALME-3M melanoma): > 100 µM
- TGI (MALME-3M melanoma): > 100 µM
- GI50 (SNB-19 CNS): > 100 µM
- TGI (SNB-19 CNS): > 100 µM
- GI50 (SW-620 colon): > 100 µM
- TGI (SW-620 colon): > 100 µM
- GI50 (OVCAR-3 ovarian): > 100 µM
- TGI (OVCAR-3 ovarian): > 100 µM
- GI50 (SF-539 CNS): > 100 µM
- TGI (SF-539 CNS): > 100 µM
- GI50 (MDA-MB-231 breast): > 100 µM
- TGI (MDA-MB-231 breast): > 100 µM
- GI50 (T-47D breast): > 100 µM
- TGI (T-47D breast): > 100 µM
- GI50 (OVCAR-4 ovarian): > 100 µM
- TGI (OVCAR-4 ovarian): > 100 µM
- GI50 (SK-MEL-2 melanoma): > 100 µM
- TGI (SK-MEL-2 melanoma): > 100 µM
- GI50 (SNB-75 CNS): > 100 µM
- TGI (SNB-75 CNS): > 100 µM
- GI50 (MCF7 breast): > 100 µM
- TGI (MCF7 breast): > 100 µM
- GI50 (SK-OV-3 ovarian): > 100 µM
- TGI (SK-OV-3 ovarian): > 100 µM
- GI50 (ACHN renal): > 100 µM
- TGI (ACHN renal): > 100 µM
- GI50 (SN12C renal): > 100 µM
- TGI (SN12C renal): > 100 µM
- GI50 (MDA-MB-468 breast): > 100 µM
- TGI (MDA-MB-468 breast): > 100 µM
- GI50 (NCI/ADR-RES ovarian): > 100 µM
- TGI (NCI/ADR-RES ovarian): > 100 µM
- GI50 (PC-3 prostate): > 100 µM
- TGI (PC-3 prostate): > 100 µM
- GI50 (NCI-H522 lung): > 100 µM
- TGI (NCI-H522 lung): > 100 µM
- GI50 (A549 NSCLC): > 100 µM
- TGI (A549 NSCLC): > 100 µM
- GI50 (RPMI-8226 leukemia): > 100 µM
- TGI (RPMI-8226 leukemia): > 100 µM
- GI50 (NCI-H322M lung): > 100 µM
- TGI (NCI-H322M lung): > 100 µM
- GI50 (CAKI-1 renal): > 100 µM
- TGI (CAKI-1 renal): > 100 µM
- GI50 (CCRF-CEM leukemia): > 100 µM
- TGI (CCRF-CEM leukemia): > 100 µM
- GI50 (KM12 colon): > 100 µM
- TGI (KM12 colon): > 100 µM
- GI50 (HOP-62 NSCLC): > 100 µM
- TGI (HOP-62 NSCLC): > 100 µM
- GI50 (SK-MEL-28 melanoma): > 100 µM
- TGI (SK-MEL-28 melanoma): > 100 µM
- GI50 (BT-549 breast): > 100 µM
- TGI (BT-549 breast): > 100 µM
- GI50 (HS 578T breast): > 100 µM
- TGI (HS 578T breast): > 100 µM
- GI50 (M14 melanoma): > 100 µM
- TGI (M14 melanoma): > 100 µM
- GI50 (MOLT-4 leukemia): > 100 µM
- TGI (MOLT-4 leukemia): > 100 µM
- GI50 (TK-10 renal): > 100 µM
- TGI (TK-10 renal): > 100 µM
- GI50 (NCI-H226 lung): > 100 µM
- TGI (NCI-H226 lung): > 100 µM
- GI50 (U251 glioblastoma): > 100 µM
- TGI (U251 glioblastoma): > 100 µM
- GI50 (HCT-116 colon): > 100 µM
- TGI (HCT-116 colon): > 100 µM
- GI50 (IGROV1 ovarian): > 100 µM
- TGI (IGROV1 ovarian): > 100 µM
- GI50 (NCI-H23 lung): > 100 µM
- TGI (NCI-H23 lung): > 100 µM
- GI50 (A498 renal): > 100 µM
- TGI (A498 renal): > 100 µM
- GI50 (HT29 colon): > 100 µM
- TGI (HT29 colon): > 100 µM
- GI50 (HOP-92 NSCLC): > 100 µM
- TGI (HOP-92 NSCLC): > 100 µM
- GI50 (UACC-62 melanoma): > 100 µM
- TGI (UACC-62 melanoma): > 100 µM
- GI50 (MDA-MB-435 melanoma): > 100 µM
- TGI (MDA-MB-435 melanoma): > 100 µM
- GI50 (OVCAR-8 ovarian): > 100 µM
- TGI (OVCAR-8 ovarian): > 100 µM
- GI50 (DU-145 prostate): > 100 µM
- TGI (DU-145 prostate): > 100 µM
- GI50 (K-562 leukemia): > 100 µM
- TGI (K-562 leukemia): > 100 µM
- GI50 (SF-295 CNS): > 100 µM
- TGI (SF-295 CNS): > 100 µM
